Results on six molecules are retold here after US4912215A, “Q-1047 Substances” (Yamanouchi Pharmaceutical Co., Ltd., priority 1989, dated 1990).

A word on the LD50: it is the dose expected to kill half of the subjects tested. Higher therefore signals lower toxicity.

A value given as a limit tells only on which side of the number the result lay.

One series can be described thus: Solubility. The format is physicochemical. The following applies: for Solubility in dioxane, toluene, benzene, chloroform: toluene (printed tolueno).
Series [1] in a line: Basic, neutral or acidic nature. The class given is physicochemical.
Series [2] is described as follows: Superoxide anion scavenging activity (method of McCord and Fridovich, xanthine/xanthine oxidase, ferricytochrome C). The class given is biochemical. Conditions: for concentration dependency of superoxide anion scavenging activity: FIG. 30, FIG. 31, FIG. 32; for SOD-like activity of the detected/isolated substance: TLC-detected substance in preparation examples, test not detailed; for IC50 / superoxide anion scavenging activity (in words): pH 7.8, 25° C.; for IC50: xanthine/xanthine oxidase, ferricytochrome C, read-out: concentration of the compound which showed one unit of SOD activity (50% reduction of increase in absorbance at 550 nm); for superoxide anion scavenging activity (in words): same reaction system. The method, then: The compounds according to the invention were tested for superoxide anion scavenging activity by the method of McCord and Fridovich [J. Biol. Chem., 244 (22), 6049-6055 1969) . Thus, xanthine oxidase was added to 5 ×10^-2 M potassium phosphate buffer (pH 7.8) containing 1 ×10^-4 M EDTA, 1×10^-5 M ferricytochrome C and 5×10^-5 M xanthine to give a reaction system in which the rate of increase in absorbance at 550 nm as determined at 25° C. amounted to 0.025 per minute.

Series [3] in a line: Antioxidant activity (decolorization of DPPH radical). The class given is biochemical. The following applies: for reduction of absorbance due to DPPH at 517 nm: 0.1 mM DPPH in ethanol, 30 minutes; for antioxidant activity of the detected/isolated substance: TLC-detected or isolated substance in preparation examples, test not detailed. The method, then:
Generally, substances called antioxidants can decolorize 1,1-diphenyl-2-picrylhydrazyl (DPPH), which is a stable radical.
Thus, DPPH was dissolved in ethanol to a concentration of 0.1 mM, the test compound was admixed with the solution and, 30 minutes later, the absorbance was determined at 517 nm.
(Loss of DPPH colour is used to gauge radical scavenging.)

Series [4] concerns Puromycin aminonucleoside (PAN) nephrosis rats. As to the kind of experiment: Effect on puromycin nephritis (PAN nephrosis rats). The format is in vivo, Male Sprague-Dawley rats. The following applies: 10 mg/kg i.p. daily. The protocol:
Male Sprague-Dawley rats (weighing 180-200 g) were used. Puromycin aminonucleoside (PAN) nephrosis rats were prepared by single intraperitoneal administration of 50 mg/kg of PAN. Throughout the experiment, the rats were fed in metabolic cages and received a solid diet for rats and tap water ad libitum. Urine samples were collected at timed intervals for 24 hours and assayed for protein content. The test drug, suspended in a 0.5% methylcellulose solution, was intraperitoneally administered daily. After the administration period, kidneys were excised, and thin sections were prepared therefrom in the conventional manner and examined microscopically.

A short description of a further series: Acute toxicity in mice. The following applies: mouse, in vivo, ip.

Consider `CC1=CC(C)C(OC2CCC(O)C(C)O2)C2=CC(=O)C=C(NC(=O)C(C)C(=O)C(C)C1)C2=O` (stereo not drawn) [Q-1047-A], for which, in the series “Solubility”, the “Solubility in dioxane, chloroform, ethyl acetate, acetonitrile” value (“Solubility in dioxane, chloroform” below) is on record as “Soluble”; the “Solubility in toluene, benzene, ethanol, methanol” value (“Solubility in toluene, benzene” for short) was “sparingly”; the “Solubility in water, hexane” value is on record as “insoluble”. Moreover, in series [1], the “Basic, neutral or acidic” value is given as “Neutral”. Besides, in series [2], the “concentration dependency of superoxide anion scavenging activity” value (“concentration dependency” for short) was “dependent on the concentration”, the “SOD-like activity of the detected/isolated substance” value is recorded as “SOD-like activity” and the IC50 came out at 5.6 µM.
As to `CC1=CC(C)C(O)c2cc(O)cc(c2O)NC(=O)C(C)C(=O)C(C)C1` (stereo not drawn) [Q-1047H-R-A], in series [3], the “reduction of absorbance due to DPPH at 517 nm” value is “reduced the absorbance due to DPPH” and the “antioxidant activity of the detected/isolated substance” value is reported as “antioxidant activity”. Also, in the series “Solubility”, the “Solubility in dioxane, toluene, benzene, chloroform” value is given as “sparingly”; the “Solubility in ethyl acetate, acetonitrile, acetone, ethanol, methanol” value was “Soluble”; the “Solubility in water, hexane” value is given as “insoluble”. Moreover, the “Basic, neutral or acidic” value in series [1] is “Neutral”.
As to `CC1=CC(C)C(O)C2=CC(=O)C=C(NC(=O)C(C)C(=O)C(C)C1)C2=O` (stereo not drawn) [Q-1047H-A-A], in the series “Solubility”, the “Solubility in dioxane, chloroform” value is reported as “Soluble”; the “Solubility in toluene, benzene” value is on record as “sparingly”; the “Solubility in water, hexane” value is on record as “insoluble”. In addition, the “Basic, neutral or acidic” value in series [1] was “Neutral”. Moreover, in series [2], the “concentration dependency” value was “concentration-dependent”, the “SOD-like activity of the detected/isolated substance” value is “SOD-like activity”, the IC50 came to 25 µM and the “superoxide anion scavenging activity (in words)” value was “have superoxide anion scavenging activity”. The urinary protein level entry in series [4] (PAN 50 mg/kg i.p. single, compared with PAN alone on 7th day) is listed as “almost no increase in urinary protein was observed”. Moreover, the “kidney tissue examination (glomerular changes or abnormalities)” value in series [4] (compared with PAN alone) was “such changes or abnormalities were lesser in extent and lower in incidence”.
Turning to `CC1=CC(C)C(O)C2=CC(=O)C=C(NC(=O)C(C)C(=O)C(C)C1)C2=O` (stereo not drawn) [Q-1047H-A-B], in the series “Solubility”, the “Solubility in dioxane, chloroform” value is listed as “Soluble”; the “Solubility in toluene, benzene” value is recorded as “sparingly”; the “Solubility in water, hexane” value is “insoluble”. For the same molecule, the “Basic, neutral or acidic” value in series [1] is “Neutral”. In series [2], the “concentration dependency” value was “concentration-dependent”, the “SOD-like activity of the detected/isolated substance” value is “SOD-like activity”, the IC50 came to 22 µM and the “superoxide anion scavenging activity (in words)” value is “have superoxide anion scavenging activity”.
With `CC1=CC(C)C(OC2CCC(O)C(C)O2)c2cc(O)cc(c2O)NC(=O)C(C)C(=O)C(C)C1` (stereo not drawn) [Q-1047R-A], in the series “Acute toxicity in mice”, the LD50 was greater than 500 mg/kg. In series [3], the “reduction of absorbance due to DPPH at 517 nm” value was “reduced the absorbance due to DPPH” and the “antioxidant activity of the detected/isolated substance” value is reported as “antioxidant activity”. For the same molecule, in the series “Solubility”, the “Solubility in dioxane, toluene, benzene, chloroform” value is reported as “sparingly”; the “Solubility in ethyl acetate, acetonitrile, acetone, ethanol, methanol” value was “Soluble”; the “Solubility in water, hexane” value is “insoluble”. The “Basic, neutral or acidic” value in series [1] was “Neutral”.
As to `CC1=CC(C)C(OC2CCC(O)C(C)O2)C2=CC(=O)C=C(NC(=O)C(C)C(=O)C(C)C1)C2=O` (stereo not drawn) [Q-1047-B], in “Solubility”, the “Solubility in dioxane, chloroform” value is on record as “Soluble”; the “Solubility in toluene, benzene” value is “sparingly”; the “Solubility in water, hexane” value is “insoluble”. The “Basic, neutral or acidic” value in series [1] is on record as “Neutral”. Moreover, in series [2], the “concentration dependency” value is “dependent on the concentration”, the “SOD-like activity of the detected/isolated substance” value is given as “SOD-like activity” and the IC50 came to 35 µM.
